# Laboratory results from patent US20060069132A1, “Azolecarboxamide herbicides” (priority 2004, published 2006).
# Experiments:
# Surinam grass = assay: Test B pre-/postemergence herbicide test; assay type: in vivo, Urochloa decumbens
# Method in brief: (§1)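 Seeds were planted and treated preemergence with compounds formulated in a non-phytotoxic solvent mixture containing surfactant, while plants at the 1- to 4-leaf stage (2 to 18 cm) received postemergence sprays. Flooded paddy plants were grown to the 2-leaf stage. After 13 to 15 days in a greenhouse, injury was visually rated 0–100 against untreated controls.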
# cocklebur = assay: Test B pre-/postemergence herbicide test; assay type: in vivo, Xanthium strumarium
# Method in brief: (§2)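 Greenhouse pot assay with simultaneous preemergence (treated seed) and postemergence (2–18 cm seedlings) applications of surfactant-containing, non-phytotoxic solvent formulations. Response scored visually 13–15 days later on a 0–100 scale, 100 meaning complete control.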
# corn = assay: Test B pre-/postemergence herbicide test; assay type: in vivo, Zea mays
# Method in brief: as §1
# giant foxtail = assay: Test B pre-/postemergence herbicide test; assay type: in vivo, Setaria faberi
# Method in brief: as §1
# lambsquarters = assay: Test B pre-/postemergence herbicide test; assay type: in vivo, Chenopodium album
# Method in brief: as §1
# morningglory = assay: Test B pre-/postemergence herbicide test; assay type: in vivo, Ipomoea coccinea
# Method in brief: as §2
# pigweed = assay: Test B pre-/postemergence herbicide test; assay type: in vivo, Amaranthus retroflexus
# Method in brief: as §1
# velvetleaf = assay: Test B pre-/postemergence herbicide test; assay type: in vivo, Abutilon theophrasti
# Method in brief: as §1
# blackgrass = assay: Test B postemergence herbicide test; assay type: in vivo, Alopecurus myosuroides
# Method in brief: (§3)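 Greenhouse test; postemergence application to plants at 1–4 leaves (2–18 cm); paddy species at 2 leaves; evaluated visually vs controls at 13–15 days; scale 0–100 (100 = complete control).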
# wheat = assay: Test B postemergence herbicide test; assay type: in vivo, Triticum aestivum; design: key to Wheat plant response rating: 0 = no effect, 100 = complete control
# Method in brief: (§4)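 Read-out: visual comparison with controls, scored 0 to 100, where 100 means complete control and 0 no effect. Formulated chemicals were applied postemergence to plants 2–18 cm tall (1- to 4-leaf), or to flooded-paddy plants at the 2-leaf stage, then held 13 to 15 days under glass.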
# wild oat = assay: Test B postemergence herbicide test; assay type: in vivo, Avena fatua
# Method in brief: as §4
# rice = assay: Test B flooded paddy test; assay type: in vivo, Oryza sativa; settings: 1000 g ai/ha, scale 0 to 100 (0 no effect, 100 complete control)
# Method in brief: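 Visual ratings, 0 (no effect) to 100 (complete control), made versus controls after 13–15 d greenhouse. Paddy plants treated at 2-leaf stage; postemergence plants at 1- to 4-leaf stage, 2–18 cm tall.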
# [1] = tested on: small flower umbrella sedge; assay: Test B flooded paddy test; assay type: in vivo, Cyperus difformis; settings: 1000 g ai/ha, scale 0 to 100 (0 no effect, 100 complete control)
# Method in brief: as §3
# ducksalad = assay: Test B flooded paddy test; assay type: in vivo, Heteranthera limosa; settings: 1000 g ai/ha, scale 0 to 100 (0 no effect, 100 complete control)
# Method in brief: as §3
# barnyardgrass = assay: Test B flooded paddy test; assay type: in vivo, Echinochloa crus-galli; settings: 1000 g ai/ha, scale 0 to 100 (0 no effect, 100 complete control)
# Method in brief: as §3
# [2] = 125 g ai/ha; 0 = no effect, 100 = complete control; preemergence
# [3] = 125 g ai/ha; visual rating, scale 0 (no effect) to 100 (complete control); postemergence
# [4] = 500 g ai/ha; visual rating, 0 = no effect, 100 = complete control; preemergence
# [5] = postemergence, 500 g ai/ha; scale 0 to 100, 0 is no effect, 100 is complete control
# [6] = 500 g ai/ha; visual rating 0-100, 0 no effect, 100 complete control; preemergence
# [7] = postemergence, 125 g ai/ha; visual rating, scale 0 (no effect) to 100 (complete control)
# [8] = postemergence, 500 g ai/ha; visual rating, scale 0 (no effect) to 100 (complete control)
# [9] = preemergence, 125 g ai/ha; 0 to 100 scale, 0 is no effect, 100 is complete control
smiles,measurement,setting,value
CCn1nc(C2(C)CC2)cc1C(=O)Nc1cc(C(=O)N2CC=CC2)ccc1F [Compound 301],Surinam Grass plant response rating (0 to 100 scale),Surinam grass; [2],90
same,Surinam Grass plant response rating,Surinam grass; [3],10
same,"Plant response rating, Surinam Grass",Surinam grass; [4],100
same,Surinam Grass plant response rating,Surinam grass; [5],30
same,Cocklebur plant response rating (0 to 100 scale),cocklebur; [2],0
same,Cocklebur plant response rating,cocklebur; [3],10
same,"Plant response rating, Cocklebur",cocklebur; [4],0
same,Cocklebur plant response rating,cocklebur; [5],50
same,Corn plant response rating (0 to 100 scale),corn; [2],0
same,Corn plant response rating,corn; [3],50
same,"Plant response rating, Corn",corn; [4],10
same,Corn plant response rating,corn; [5],50
same,"Foxtail, Giant plant response rating (0 to 100 scale)",giant foxtail; [2],70
same,"Foxtail, Giant plant response rating",giant foxtail; [3],10
same,"Plant response rating, Foxtail, Giant",giant foxtail; [4],90
same,"Foxtail, Giant plant response rating",giant foxtail; [5],20
same,Lambsquarters plant response rating (0 to 100 scale),lambsquarters; [2],100
same,Lambsquarters plant response rating,lambsquarters; [3],70
same,"Plant response rating, Lambsquarters",lambsquarters; [4],100
same,Lambsquarters plant response rating,lambsquarters; [5],80
same,Morningglory plant response rating (0 to 100 scale),morningglory; [2],10
same,Morningglory plant response rating,morningglory; [3],60
same,"Plant response rating, Morningglory",morningglory; [4],80
same,Morningglory plant response rating,morningglory; [5],90
same,Pigweed plant response rating (0 to 100 scale),pigweed; [2],100
same,Pigweed plant response rating,pigweed; [3],80
same,"Plant response rating, Pigweed",pigweed; [4],100
same,Pigweed plant response rating,pigweed; [5],90
same,Velvetleaf plant response rating,velvetleaf; [3],30
same,"Plant response rating, Velvetleaf",velvetleaf; [4],100
same,Velvetleaf plant response rating,velvetleaf; [5],100
same,Blackgrass plant response rating,blackgrass; [3],10
same,Blackgrass plant response rating,blackgrass; [5],40
same,Wheat plant response rating,wheat; [3],10
same,Wheat plant response rating,wheat; [5],20
same,"Oat, Wild plant response rating",wild oat; [3],20
same,"Oat, Wild plant response rating",wild oat; [5],40
same,Rice plant response rating,rice,90
same,"Sedge, Umbrella plant response rating",[1],90
same,Ducksalad plant response rating,ducksalad,90
same,Barnyardgrass plant response rating,barnyardgrass,90
CCn1nc(C(C)(C)C)cc1C(=O)Nc1cccc(OCCCF)c1 [Compound 138],"Plant response rating, Surinam Grass",Surinam grass; [6],30
same,Surinam Grass plant response rating,Surinam grass; [7],20
same,Surinam Grass plant response rating,Surinam grass; [8],30
same,"Plant response rating, Surinam Grass",Surinam grass; [9],0
same,"Plant response rating, Cocklebur",cocklebur; [6],10
same,Cocklebur plant response rating,cocklebur; [7],40
same,Cocklebur plant response rating,cocklebur; [8],90
same,"Plant response rating, Cocklebur",cocklebur; [9],0
same,"Plant response rating, Corn",corn; [6],10
same,Corn plant response rating,corn; [7],20
same,Corn plant response rating,corn; [8],30
same,"Plant response rating, Corn",corn; [9],0
same,"Plant response rating, Foxtail, Giant",giant foxtail; [6],70
same,"Foxtail, Giant plant response rating",giant foxtail; [7],20
same,"Foxtail, Giant plant response rating",giant foxtail; [8],30
same,"Plant response rating, Foxtail, Giant",giant foxtail; [9],30
same,"Plant response rating, Lambsquarters",lambsquarters; [6],100
same,Lambsquarters plant response rating,lambsquarters; [7],80
same,Lambsquarters plant response rating,lambsquarters; [8],90
same,"Plant response rating, Lambsquarters",lambsquarters; [9],0
same,"Plant response rating, Morningglory",morningglory; [6],20
same,Morningglory plant response rating,morningglory; [7],20
same,Morningglory plant response rating,morningglory; [8],60
same,"Plant response rating, Morningglory",morningglory; [9],0
same,"Plant response rating, Pigweed",pigweed; [6],100
same,Pigweed plant response rating,pigweed; [7],60
same,Pigweed plant response rating,pigweed; [8],90
same,"Plant response rating, Pigweed",pigweed; [9],60
same,"Plant response rating, Velvetleaf",velvetleaf; [6],40
same,Velvetleaf plant response rating,velvetleaf; [7],20
same,Velvetleaf plant response rating,velvetleaf; [8],50
same,"Plant response rating, Velvetleaf",velvetleaf; [9],0
same,Blackgrass plant response rating,blackgrass; [7],0
same,Blackgrass plant response rating,blackgrass; [8],20
same,Wheat plant response rating,wheat; [7],20
same,Wheat plant response rating,wheat; [8],30
same,"Oat, Wild plant response rating",wild oat; [7],20
same,"Oat, Wild plant response rating",wild oat; [8],30
same,Rice plant response rating,"rice; visual rating, 13 to 15 days",50
same,"Sedge, Umbrella plant response rating","[1]; visual rating, 13 to 15 days",80
same,Ducksalad plant response rating,"ducksalad; visual rating, 13 to 15 days",80
same,Barnyardgrass plant response rating,"barnyardgrass; visual rating, 13 to 15 days",10
